Counter-ions that a name gives are not always drawn.
Biological target: T1, human ALK5 (Homo sapiens, UniProt P36897)
T1 construct: human ALK5 (recombinant TGF β1 N-term GST-tagged, 80-end); GST (N); purchased
T1 sequence (P36897 80-503 limits assumed): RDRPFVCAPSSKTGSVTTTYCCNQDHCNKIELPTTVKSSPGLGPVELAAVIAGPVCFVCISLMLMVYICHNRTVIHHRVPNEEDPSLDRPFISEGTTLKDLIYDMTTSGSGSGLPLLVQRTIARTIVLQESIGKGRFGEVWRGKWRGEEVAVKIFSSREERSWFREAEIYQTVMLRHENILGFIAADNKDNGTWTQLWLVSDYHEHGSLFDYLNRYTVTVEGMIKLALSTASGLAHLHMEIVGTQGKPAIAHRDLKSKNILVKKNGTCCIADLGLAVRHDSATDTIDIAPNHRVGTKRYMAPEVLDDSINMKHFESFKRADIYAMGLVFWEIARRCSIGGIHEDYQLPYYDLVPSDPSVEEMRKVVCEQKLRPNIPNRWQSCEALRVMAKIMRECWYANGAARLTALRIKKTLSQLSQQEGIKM
Assay: ADP-GLO Kinases assay of ALK5 enzymatic activity
Format: biochemical
Settings: purified recombinant human ALK5, TGFβ1 peptide substrate, pIC50 converted to pKi by Cheng-Prusoff, high ATP protocol (15 μM) for very potent compounds, 25° C.
Procedure, shortened: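 Purified ALK5 preincubated 15 min with compound, then reacted with substrate and ATP; ADP formed read by ADP-Glo luminescence after 120 min or 60 min reaction, all steps at 25° C. 11-point concentration-response; pIC50 converted to pKi via Cheng-Prusoff.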

Row | SMILES | Ki
1 | CN1CCN(CCC(=O)Nc2cc(Nc3cc(-c4cc(Cl)ccc4F)nnc3OCCN)ccn2)CC1 [Example 8, N-(4-{[3-(2-aminoethoxy)-6-(5-chloro-2-fluorophenyl)pyridazin-4-yl]amino}pyridin-2-yl)-3-(4-methylpiperazin-1-yl)propanamide] | 0.126 to 0.316 nM
2 | CN1CCCN(CC(=O)Nc2cc(Nc3cc(-c4cc(Cl)ccc4F)nnc3SCCO)ccn2)CC1 [Example 27, N-(4-{[6-(5-chloro-2-fluorophenyl)-3-[(2-hydroxyethyl)sulfanyl]pyridazin-4-yl]amino}pyridin-2-yl)-2-(4-methyl-1,4-diazepan-1-yl)acetamide] | ≤ 0.1 nM
3 | CN1CCN(CCC(=O)Nc2cc(Nc3cc(-c4cc(Cl)ccc4F)nnc3SCC(O)CO)ccn2)CC1 (stereo not shown) [Example 86, N-(4-{[6-(5-chloro-2-fluorophenyl)-3-[(2,3-dihydroxypropyl)sulfanyl]pyridazin-4-yl]amino}pyridin-2-yl)-3-(4-methylpiperazin-1-yl)propanamide] | ≤ 0.1 nM
4 | CN1CCN(CCC(=O)Nc2cc(Nc3cc(-c4cc(Cl)ccc4F)nnc3OCC(O)CO)ccn2)CC1 (stereo not shown) [Example 78, N-(4-{[6-(5-chloro-2-fluorophenyl)-3-(2,3-dihydroxypropoxy)pyridazin-4-yl]amino}pyridin-2-yl)-3-(4-methylpiperazin-1-yl)propanamide] | ≤ 0.1 nM
5 | CN1CCN(CCOc2nnc(-c3cc(Cl)ccc3F)cc2Nc2ccnc(N)c2)CC1 [Example 70, N4-[6-(5-chloro-2-fluorophenyl)-3-[2-(4-methylpiperazin-1-yl)ethoxy]pyridazin-4-yl]pyridine-2,4-diamine] | 0.398 to 3.16 nM
6 | COCCOc1nnc(-c2cc(Cl)ccc2F)cc1Nc1ccnc2cc(OCCN3CCN(C)CC3)ccc12 [Example 32, N-[6-(5-chloro-2-fluorophenyl)-3-(2-methoxyethoxy)pyridazin-4-yl]-7-[2-(4-methylpiperazin-1-yl)ethoxy]quinolin-4-amine] | ≤ 0.1 nM
7 | COc1nnc(-c2cc(Cl)ccc2F)cc1Nc1ccnc(NC(=O)CCN2CCN(C)CC2)c1 [Example 47, N-(4-{[6-(5-chloro-2-fluorophenyl)-3-methoxypyridazin-4-yl]amino}pyridin-2-yl)-3-(4-methylpiperazin-1-yl)propanamide] | ≤ 0.1 nM
8 | COc1nnc(-c2cc(Cl)ccc2F)cc1Nc1ccnc2cc(OCCN3CCN(C)CC3)ccc12 [Example 46, N-[6-(5-chloro-2-fluorophenyl)-3-methoxypyridazin-4-yl]-7-[2-(4-methylpiperazin-1-yl)ethoxy]quinolin-4-amine] | ≤ 0.1 nM
9 | CN1CCN(CCC(=O)Nc2cc(Nc3cc(-c4cc(Cl)ccc4F)nnc3OC3CCOC3)ccn2)CC1 (single isomer, unassigned) [Example 75, N-(4-{[6-(5-chloro-2-fluorophenyl)-3-(oxolan-3-yloxy)pyridazin-4-yl]amino}pyridin-2-yl)-3-(4-methylpiperazin-1-yl)propanamide] | ≤ 0.1 nM
10 | CN1CCN(CCC(=O)Nc2cc(Nc3cc(-c4cc(Cl)ccc4F)nnc3N(C)C)ccn2)CC1 [Example 30, N-(4-{[6-(5-chloro-2-fluorophenyl)-3-(dimethylamino)pyridazin-4-yl]amino}pyridin-2-yl)-3-(4-methylpiperazin-1-yl)propanamide] | ≤ 0.1 nM
11 | CN1CCN(CCC(=O)Nc2cc(Nc3cc(-c4cc(Cl)ccc4F)nnc3N(C)Cc3cccc(O)c3)ccn2)CC1 [Example 102, N-(4-{[6-(5-chloro-2-fluorophenyl)-3-{[(3-hydroxyphenyl)methyl](methyl)amino}pyridazin-4-yl]amino}pyridin-2-yl)-3-(4-methylpiperazin-1-yl)propanamide] | 0.126 to 0.316 nM
12 | CNc1nnc(-c2cc(Cl)ccc2F)cc1Nc1ccnc(NC(=O)CCN2CCN(C)CC2)c1 [Example 29] | ≤ 0.1 nM

Second part, the compound after the results:

Row | Ki | SMILES
13 | ≤ 0.1 nM | C[C@@H]1CN([C@H]2C[C@H](C(=O)Nc3cc(Nc4cc(-c5cc(Cl)ccc5F)nnc4N(C)CC4(C)CCOC4=O)ncn3)C2)C[C@H](C)N1 (mixture of isomers) [Example 185, N-(6-{[6-(5-chloro-2-fluorophenyl)-3-{methyl[(3-methyl-2-oxooxolan-3-yl)methyl]amino}pyridazin-4-yl]amino}pyrimidin-4-yl)-3-(3,5-dimethylpiperazin-1-yl)cyclobutane-1-carboxamide]
14 | ≤ 0.1 nM | CN1CCN(CCC(=O)Nc2cc(Nc3cc(-c4cc(Cl)ccc4F)nnc3N(C)CC3(C)CCOC3=O)ncn2)CC1 (single isomer, unassigned; enantiomer 1) [Example 138, Enantiomer 1 N-(6-{[6-(5-chloro-2-fluorophenyl)-3-{methyl[(3-methyl-2-oxooxolan-3-yl)methyl]amino}pyridazin-4-yl]amino}pyrimidin-4-yl)-3-(4-methylpiperazin-1-yl)propanamide]
15 | ≤ 0.1 nM | CN1CCN(CCC(=O)Nc2cc(Nc3cc(-c4cc(Cl)ccc4F)nnc3SCCOCCO)ccn2)CC1 [Example 194, N-(4-{[6-(5-chloro-2-fluorophenyl)-3-{[2-(2-hydroxyethoxy)ethyl]sulfanyl}pyridazin-4-yl]amino}pyridin-2-yl)-3-(4-methylpiperazin-1-yl)propanamide]
16 | ≤ 0.1 nM | COCC1(CN(C)c2nnc(-c3cc(Cl)ccc3F)cc2Nc2ccnc(NC(=O)CCN3CCN(C)CC3)c2)CCOC1=O (racemic) [Example 200, N-(4-{[6-(5-chloro-2-fluorophenyl)-3-({[3-(methoxymethyl)-2-oxooxolan-3-yl]methyl}(methyl)amino)pyridazin-4-yl]amino}pyridin-2-yl)-3-(4-methylpiperazin-1-yl)propanamide]
17 | 0.126 to 0.316 nM | O=C(Nc1cc(Nc2cc(-c3cc(Cl)ccc3F)nnc2SCCO)ccn1)C12CC(CN3CCN(C4CC4)CC3)(C1)C2 [Example 183, N-(4-{[6-(5-chloro-2-fluorophenyl)-3-[(2-hydroxyethyl)sulfanyl]pyridazin-4-yl]amino}pyridin-2-yl)-3-[(4-cyclopropylpiperazin-1-yl)methyl]bicyclo[1.1.1]pentane-1-carboxamide]
18 | 0.126 to 0.316 nM | CN1CCN(CCC(=O)Nc2cc(Nc3cc(-c4cc(Cl)ccc4F)nnc3N3CCO[C@@H](C(=O)O)C3)ccn2)CC1 (stereo in doubt) [Example 134, 4-[6-(5-chloro-2-fluorophenyl)-4-({2-[3-(4-methylpiperazin-1-yl)propanamido]pyridin-4-yl}amino)pyridazin-3-yl]morpholine-2-carboxylate lithium salt]
19 | ≤ 0.1 nM | CN1CCN(CCC(=O)Nc2cc(Nc3cc(-c4cc(Cl)ccc4F)nnc3N(C)CCC(O)C(F)(F)F)ccn2)CC1 (stereo not shown) [Example 110, N-(4-{[6-(5-chloro-2-fluorophenyl)-3-[methyl(4,4,4-trifluoro-3-hydroxybutyl)amino]pyridazin-4-yl]amino}pyridin-2-yl)-3-(4-methylpiperazin-1-yl)propanamide]
20 | 0.126 to 0.316 nM | CN1CCN(CCC(=O)Nc2cc(Nc3cc(-c4cc(Cl)ccc4F)nnc3SCc3cccc(C(=O)O)c3)ccn2)CC1 [Example 196, 3-({[6-(5-chloro-2-fluorophenyl)-4-({2-[3-(4-methylpiperazin-1-yl)propanamido]pyridin-4-yl}amino)pyridazin-3-yl]sulfanyl}methyl)benzoic acid]
21 | ≤ 0.1 nM | CN1CCN(CCC(=O)Nc2cc(Nc3cc(-c4cc(Cl)ccc4F)nnc3SC[C@H]3C[C@@H](O)C3)ccn2)CC1 [Example 154, N-(4-{[6-(5-chloro-2-fluorophenyl)-3-{[(3-hydroxycyclobutyl)methyl]sulfanyl}pyridazin-4-yl]amino}pyridin-2-yl)-3-(4-methylpiperazin-1-yl)propanamide]
22 | ≤ 0.1 nM | CN1CCN([C@H]2C[C@H](C(=O)Nc3cc(Nc4cc(-c5cc(Cl)ccc5F)nnc4OC4CCOC4)ccn3)C2)CC1 (single isomer, unassigned) [Example 112, N-(4-{[6-(5-chloro-2-fluorophenyl)-3-(oxolan-3-yloxy)pyridazin-4-yl]amino}pyridin-2-yl)-3-(4-methylpiperazin-1-yl)cyclobutane-1-carboxamide]
23 | ≤ 0.1 nM | CN1CCN(CCC(=O)Nc2cc(Nc3cc(-c4cc(Cl)ccc4F)nnc3SCC3CCCC(=O)O3)ccn2)CC1 (racemic) [Example 204, N-(4-{[6-(5-chloro-2-fluorophenyl)-3-{[(6-oxooxan-2-yl)methyl]sulfanyl}pyridazin-4-yl]amino}pyridin-2-yl)-3-(4-methylpiperazin-1-yl)propanamide]
24 | ≤ 0.1 nM | COC(=O)C1CN(c2nnc(-c3cc(Cl)ccc3F)cc2Nc2ccnc(NC(=O)CN3C[C@@H]4C[C@H]3CN4C)c2)C1 [Example 109, methyl 1-[6-(5-chloro-2-fluorophenyl)-4-[(2-{2-[(1S,4S)-5-methyl-2,5-diazabicyclo[2.2.1]heptan-2-yl]acetamido}pyridin-4-yl)amino]pyridazin-3-yl]azetidine-3-carboxylate]
25 | 0.126 to 0.316 nM | C[C@@H]1CN(CCC(=O)Nc2cc(Nc3cc(-c4cc(Cl)ccc4F)nnc3SCC[Si](C)(C)C)ncn2)C[C@H](C)N1 [Example 195, N-(6-{[6-(5-chloro-2-fluorophenyl)-3-{[2-(trimethylsilyl)ethyl]sulfanyl}pyridazin-4-yl]amino}pyrimidin-4-yl)-3-(3,5-dimethylpiperazin-1-yl)propanamide]

From patent publication US20250011299A1, “PYRIDAZINYL AMINO DERIVATIVES AS ALK5 INHIBITORS” (CHIESI FARMACEUTICI S.P.A., priority 2021, published 2025)
